Laboratory results published in patent US20230042936A1, “PYRIDO[2,3-d]PYRIMIDIN-7(8H)-ONES AS CDK INHIBITORS” (PROSENESTAR LLC, priority 2020, published 2023).
In brackets after ≈: the same amount, converted by molar mass. Read-outs that look alike come from different tables or passages of the source.

Tests used:
AKT1 aa1-480 = target: T1, AKT1 aa1-480 (Homo sapiens, UniProt P31749); assay: Kinase profiling; type: biochemical; settings: 10 semi-logarithmic dilutions from 50 μM, singlicate
T1 construct: AKT1 aa1-480
T1 sequence (P31749 whole entry, the tested form may be a part): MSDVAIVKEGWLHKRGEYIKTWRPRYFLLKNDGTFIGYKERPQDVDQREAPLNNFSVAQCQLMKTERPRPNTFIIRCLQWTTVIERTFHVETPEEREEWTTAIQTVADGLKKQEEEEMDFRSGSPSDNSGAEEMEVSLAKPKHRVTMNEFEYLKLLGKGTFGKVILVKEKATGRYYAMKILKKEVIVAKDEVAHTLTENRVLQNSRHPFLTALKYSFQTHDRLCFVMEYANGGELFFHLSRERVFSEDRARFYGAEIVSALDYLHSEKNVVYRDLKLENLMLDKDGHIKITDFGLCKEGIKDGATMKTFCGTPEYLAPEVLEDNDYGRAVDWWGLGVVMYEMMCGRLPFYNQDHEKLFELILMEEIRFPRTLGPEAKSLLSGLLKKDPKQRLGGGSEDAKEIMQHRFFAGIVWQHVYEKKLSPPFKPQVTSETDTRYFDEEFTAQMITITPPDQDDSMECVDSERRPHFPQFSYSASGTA

CDC7/DBF4 = CDC7/DBF4 (Homo sapiens, UniProt O00311); assay: Kinase profiling; type: biochemical
Sequence of CDC7/DBF4 (O00311 whole entry): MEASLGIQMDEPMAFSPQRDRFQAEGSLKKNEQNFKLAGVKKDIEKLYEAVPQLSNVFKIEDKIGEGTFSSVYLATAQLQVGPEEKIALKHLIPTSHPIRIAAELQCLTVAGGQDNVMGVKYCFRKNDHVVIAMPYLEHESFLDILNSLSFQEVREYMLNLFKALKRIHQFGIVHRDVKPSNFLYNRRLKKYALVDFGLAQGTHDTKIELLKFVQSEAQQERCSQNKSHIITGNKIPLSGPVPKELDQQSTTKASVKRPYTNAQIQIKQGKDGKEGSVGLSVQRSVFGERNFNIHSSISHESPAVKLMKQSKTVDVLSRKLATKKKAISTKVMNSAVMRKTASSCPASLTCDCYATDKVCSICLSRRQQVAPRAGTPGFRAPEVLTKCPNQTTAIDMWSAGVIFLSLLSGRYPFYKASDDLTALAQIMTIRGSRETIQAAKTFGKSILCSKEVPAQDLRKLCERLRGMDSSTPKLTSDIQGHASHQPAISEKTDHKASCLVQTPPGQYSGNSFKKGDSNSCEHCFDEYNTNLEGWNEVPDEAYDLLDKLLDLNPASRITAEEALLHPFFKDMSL
Sequence of CDC7/DBF4 (Q9UBU7 whole entry partner): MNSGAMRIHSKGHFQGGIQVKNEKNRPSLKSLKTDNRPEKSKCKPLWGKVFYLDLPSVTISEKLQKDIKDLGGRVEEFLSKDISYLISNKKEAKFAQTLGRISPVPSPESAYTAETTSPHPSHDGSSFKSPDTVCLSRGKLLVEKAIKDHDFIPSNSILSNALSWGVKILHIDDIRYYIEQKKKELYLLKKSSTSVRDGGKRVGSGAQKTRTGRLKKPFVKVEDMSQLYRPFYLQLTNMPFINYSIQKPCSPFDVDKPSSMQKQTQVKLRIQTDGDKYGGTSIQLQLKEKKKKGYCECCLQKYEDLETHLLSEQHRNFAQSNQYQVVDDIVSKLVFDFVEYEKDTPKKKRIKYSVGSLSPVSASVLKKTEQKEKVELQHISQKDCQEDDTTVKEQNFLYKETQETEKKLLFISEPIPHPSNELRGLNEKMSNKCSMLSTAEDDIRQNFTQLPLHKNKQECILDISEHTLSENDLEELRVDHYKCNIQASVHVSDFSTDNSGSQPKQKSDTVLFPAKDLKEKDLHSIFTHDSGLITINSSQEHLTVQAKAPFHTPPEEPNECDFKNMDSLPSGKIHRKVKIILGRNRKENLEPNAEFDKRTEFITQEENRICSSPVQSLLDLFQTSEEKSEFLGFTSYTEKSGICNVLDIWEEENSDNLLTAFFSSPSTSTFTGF

CDK12wt/CycK = CDK12wt/CycK (Homo sapiens, UniProt Q9NYV4); assay: Kinase profiling; type: biochemical; settings: 10 semi-logarithmic dilutions from 50 μM, singlicate
CDK19/CycC = CDK19/CycC (Homo sapiens, UniProt Q9BWU1); assay: Kinase profiling; type: biochemical; settings: 10 semi-logarithmic dilutions from 50 μM, singlicate
Sequence of CDK19/CycC (Q9BWU1 whole entry): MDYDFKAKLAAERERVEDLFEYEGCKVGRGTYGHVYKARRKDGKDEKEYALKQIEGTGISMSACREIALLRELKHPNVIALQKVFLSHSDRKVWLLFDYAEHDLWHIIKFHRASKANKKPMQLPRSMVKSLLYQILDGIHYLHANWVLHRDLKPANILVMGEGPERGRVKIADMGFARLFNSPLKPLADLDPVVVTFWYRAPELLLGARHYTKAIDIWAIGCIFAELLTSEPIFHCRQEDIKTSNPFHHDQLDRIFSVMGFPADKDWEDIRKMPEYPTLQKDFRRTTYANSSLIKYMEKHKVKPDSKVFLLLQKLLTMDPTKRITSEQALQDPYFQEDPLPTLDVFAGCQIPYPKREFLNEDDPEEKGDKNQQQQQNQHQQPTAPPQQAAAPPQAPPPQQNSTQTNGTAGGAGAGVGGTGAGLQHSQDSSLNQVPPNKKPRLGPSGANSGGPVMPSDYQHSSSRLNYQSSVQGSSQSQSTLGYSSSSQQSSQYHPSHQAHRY
Sequence of CDK19/CycC (P24863 whole entry partner): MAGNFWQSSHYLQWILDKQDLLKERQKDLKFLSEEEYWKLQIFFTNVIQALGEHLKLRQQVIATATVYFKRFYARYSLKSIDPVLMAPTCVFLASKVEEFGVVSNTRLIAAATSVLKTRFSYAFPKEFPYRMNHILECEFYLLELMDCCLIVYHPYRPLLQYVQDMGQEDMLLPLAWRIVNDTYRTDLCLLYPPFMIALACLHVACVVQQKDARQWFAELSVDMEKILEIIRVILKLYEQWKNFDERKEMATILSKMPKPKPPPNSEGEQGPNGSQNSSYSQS

CDK3/CycC = CDK3/CycC (Homo sapiens, UniProt Q00526); assay: Kinase profiling; type: biochemical; settings: 10 semi-logarithmic dilutions from 50 μM, singlicate
Sequence of CDK3/CycC (Q00526 whole entry): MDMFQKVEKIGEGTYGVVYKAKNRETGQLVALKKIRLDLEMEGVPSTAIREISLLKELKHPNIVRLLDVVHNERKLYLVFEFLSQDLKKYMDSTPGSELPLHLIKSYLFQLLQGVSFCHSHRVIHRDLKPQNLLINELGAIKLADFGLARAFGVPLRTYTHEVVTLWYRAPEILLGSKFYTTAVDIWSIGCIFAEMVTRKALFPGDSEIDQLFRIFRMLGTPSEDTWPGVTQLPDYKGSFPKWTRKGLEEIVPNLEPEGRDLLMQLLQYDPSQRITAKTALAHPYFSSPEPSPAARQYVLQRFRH
Sequence of CDK3/CycC (P24863 whole entry partner): as the sequence (P24863 whole entry partner) above

CDK3/CycE1 = CDK3/CycE1 (Homo sapiens, UniProt Q00526); assay: Kinase profiling; type: biochemical; settings: 10 semi-logarithmic dilutions from 50 μM, singlicate
CDK8/CycC = CDK8/CycC (Homo sapiens, UniProt P49336); assay: Kinase profiling; type: biochemical; settings: 10 semi-logarithmic dilutions from 50 μM, singlicate
Sequence of CDK8/CycC (P49336 whole entry): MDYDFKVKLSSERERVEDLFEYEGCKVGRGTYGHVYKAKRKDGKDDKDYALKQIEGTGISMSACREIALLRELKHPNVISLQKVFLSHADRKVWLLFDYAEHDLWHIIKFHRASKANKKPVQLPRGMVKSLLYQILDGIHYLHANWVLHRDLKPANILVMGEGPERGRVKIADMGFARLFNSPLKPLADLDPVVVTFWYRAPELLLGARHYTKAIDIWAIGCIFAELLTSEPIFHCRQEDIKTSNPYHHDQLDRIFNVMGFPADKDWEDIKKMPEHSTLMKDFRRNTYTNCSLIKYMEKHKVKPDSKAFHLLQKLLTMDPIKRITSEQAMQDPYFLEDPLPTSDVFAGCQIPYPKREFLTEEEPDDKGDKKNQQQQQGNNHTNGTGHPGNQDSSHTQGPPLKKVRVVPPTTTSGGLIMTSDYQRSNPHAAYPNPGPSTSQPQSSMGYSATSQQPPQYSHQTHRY
Sequence of CDK8/CycC (P24863 whole entry partner): as the sequence (P24863 whole entry partner) above

ERK1 = ERK1 (Homo sapiens, UniProt P27361); assay: Kinase profiling; type: biochemical; settings: 10 semi-logarithmic dilutions from 50 μM, singlicate
Sequence of ERK1 (P27361 whole entry): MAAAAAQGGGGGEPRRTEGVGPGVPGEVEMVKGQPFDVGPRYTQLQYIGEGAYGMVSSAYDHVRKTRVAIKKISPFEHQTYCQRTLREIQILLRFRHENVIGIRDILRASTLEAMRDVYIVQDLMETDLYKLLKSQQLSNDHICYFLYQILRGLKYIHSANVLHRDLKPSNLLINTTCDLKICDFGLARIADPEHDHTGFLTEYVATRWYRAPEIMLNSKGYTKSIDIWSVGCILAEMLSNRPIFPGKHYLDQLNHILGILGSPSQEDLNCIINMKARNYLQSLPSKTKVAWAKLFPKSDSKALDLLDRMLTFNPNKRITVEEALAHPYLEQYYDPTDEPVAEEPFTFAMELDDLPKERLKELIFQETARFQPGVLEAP

HIPK2 = HIPK2 (Homo sapiens, UniProt Q9H2X6); assay: Kinase profiling; type: biochemical
Sequence of HIPK2 (Q9H2X6 whole entry): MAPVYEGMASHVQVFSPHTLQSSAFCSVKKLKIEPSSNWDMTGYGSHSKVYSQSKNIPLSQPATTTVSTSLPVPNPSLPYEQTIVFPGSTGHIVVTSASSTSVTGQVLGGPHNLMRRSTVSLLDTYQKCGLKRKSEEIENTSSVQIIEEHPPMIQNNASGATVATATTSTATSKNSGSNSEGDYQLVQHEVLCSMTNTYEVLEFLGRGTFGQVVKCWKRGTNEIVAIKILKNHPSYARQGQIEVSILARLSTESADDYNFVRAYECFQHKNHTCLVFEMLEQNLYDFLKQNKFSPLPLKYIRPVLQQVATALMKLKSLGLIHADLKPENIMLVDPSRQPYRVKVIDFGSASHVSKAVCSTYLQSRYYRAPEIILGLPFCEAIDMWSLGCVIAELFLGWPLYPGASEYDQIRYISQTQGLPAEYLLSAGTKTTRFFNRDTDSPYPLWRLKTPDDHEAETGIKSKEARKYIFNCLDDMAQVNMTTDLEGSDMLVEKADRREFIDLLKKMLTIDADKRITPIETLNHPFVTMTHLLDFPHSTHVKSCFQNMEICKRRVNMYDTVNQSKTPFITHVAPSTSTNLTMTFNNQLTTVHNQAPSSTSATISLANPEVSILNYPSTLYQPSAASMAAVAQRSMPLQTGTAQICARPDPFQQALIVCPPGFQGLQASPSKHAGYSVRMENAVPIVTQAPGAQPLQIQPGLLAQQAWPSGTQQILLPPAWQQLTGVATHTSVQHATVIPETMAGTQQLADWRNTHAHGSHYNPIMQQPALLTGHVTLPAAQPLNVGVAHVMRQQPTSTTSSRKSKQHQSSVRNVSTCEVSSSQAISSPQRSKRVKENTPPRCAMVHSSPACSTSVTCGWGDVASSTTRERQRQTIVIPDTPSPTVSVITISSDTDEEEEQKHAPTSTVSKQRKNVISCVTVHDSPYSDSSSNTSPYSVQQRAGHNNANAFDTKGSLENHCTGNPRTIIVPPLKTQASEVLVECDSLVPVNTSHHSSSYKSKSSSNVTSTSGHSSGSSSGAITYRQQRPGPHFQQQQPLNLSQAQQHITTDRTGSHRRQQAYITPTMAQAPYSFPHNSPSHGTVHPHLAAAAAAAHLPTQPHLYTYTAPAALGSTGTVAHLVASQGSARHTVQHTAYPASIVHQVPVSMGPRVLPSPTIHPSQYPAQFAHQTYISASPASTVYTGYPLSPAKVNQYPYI

[1] = tested on: H460 lung carcinoma cell line; assay: Proliferation assay: determination of GI50; type: cell-based, human; settings: Table 3, 48 h, n = 2 independent experiments
Experimental: (§1) The following human tumor cell lines, all Retinoblastoma (Rb)-proficient, were used in this study: MDA-MB231 (breast cancer), MDA-MB453 (breast cancer), U87MG (glioblastoma) and H460 (lung cancer). MDA-MB468 (breast cancer) and SW1783 (glioblastoma) Rb-deficient cells were also included in the study, as well as the MCF10A non-transformed mammary epithelial cell line. Tumor cell lines were maintained in DMEM or RPMI-1640 medium, depending on the cell line, supplemented with 10% FBS. MCF10A cells were grown in complete mammary epithelial growth medium (MEGM, Lonza). Cell lines were authenticated by short tandem repeat (STR) loci profiling with the GenePrint® 10 System (Promega).
(§2) All human cancer cell lines (Table 2) were obtained from the American Type Culture Collection, and were maintained in DMEM (Hyclone) or RPMI-1640 medium (Sigma) supplemented with 10% fetal bovine serum (Sigma). Non-transformed MCF10 cell line was maintained in MEGM Mammary Epithelial Cell Growth Medium (Lonza). Immortalized mouse embryonic fibroblasts (MEFs) were maintained in DMEM with 10% fetal bovine serum.
(§3) 48 h later cells were fixed with PFA 4% for 15 minutes, stained with 10 μg/ml Hoechst 33342 (Molecular Probes, Thermo Fisher) for 30 minutes and washed twice with PBS. Cells were imaged in a high content screening system (Opera Phoenix™, Perkin Elmer) using a 20× dry objective (30 fields/well). Cell counts were determined by the Opera software (Perkin Elmer) and data were further processed with SPSS software. GI50 was calculated by estimating the absolute IC50 using dose-response inhibition tool in Prism6 (Graphpad Software Inc.).

[2] = tested on: MCF10 non-transformed mammary epithelial cell line; assay: Proliferation assay: determination of GI50; type: cell-based, human; settings: Table 3, 48 h, n = 2 independent experiments
Experimental: as §1, §2, §3

[3] = tested on: MDA-MB-231 breast carcinoma cell line; assay: Proliferation assay: determination of GI50; type: cell-based, human
Experimental: as §1, §2, §3

[4] = tested on: U87MG glioblastoma cell line; assay: Proliferation assay: determination of GI50; type: cell-based, human
Experimental: as §1, §2, §3

DYRK2 = target: T2, DYRK2 (Homo sapiens, UniProt Q92630); assay: Kinase profiling; type: biochemical
T2 sequence (Q92630 1-601): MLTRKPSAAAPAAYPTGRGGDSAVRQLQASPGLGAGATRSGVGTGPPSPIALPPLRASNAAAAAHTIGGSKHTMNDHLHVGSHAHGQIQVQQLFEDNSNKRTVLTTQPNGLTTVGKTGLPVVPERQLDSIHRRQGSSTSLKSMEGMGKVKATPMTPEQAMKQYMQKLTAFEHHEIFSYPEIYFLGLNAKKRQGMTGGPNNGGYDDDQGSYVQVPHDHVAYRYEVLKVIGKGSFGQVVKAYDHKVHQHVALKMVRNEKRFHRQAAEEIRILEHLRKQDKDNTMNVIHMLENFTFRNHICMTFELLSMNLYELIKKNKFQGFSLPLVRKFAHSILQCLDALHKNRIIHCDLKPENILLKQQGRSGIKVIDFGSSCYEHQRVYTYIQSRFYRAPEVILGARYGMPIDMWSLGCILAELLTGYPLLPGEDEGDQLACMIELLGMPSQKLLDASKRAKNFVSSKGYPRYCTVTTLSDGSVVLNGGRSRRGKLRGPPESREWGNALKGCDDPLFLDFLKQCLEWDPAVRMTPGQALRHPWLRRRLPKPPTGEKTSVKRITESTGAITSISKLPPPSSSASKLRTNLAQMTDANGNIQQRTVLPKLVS

CDK5/p25NCK = CDK5/p25NCK (Homo sapiens, UniProt Q00535); assay: Kinase profiling; type: biochemical; settings: 10 semi-logarithmic dilutions from 50 μM, singlicate
CDK5/p35NCK = CDK5/p35NCK (Homo sapiens, UniProt Q00535); assay: Kinase profiling; type: biochemical; settings: 10 semi-logarithmic dilutions from 50 μM, singlicate
CDK7/CycH/MAT1 = CDK7/CycH/MAT1 (Homo sapiens, UniProt P50613); assay: Kinase profiling; type: biochemical; settings: 10 semi-logarithmic dilutions from 50 μM, singlicate
DYRK1A = DYRK1A (Homo sapiens, UniProt Q13627); assay: Kinase profiling; type: biochemical; settings: 10 semi-logarithmic dilutions from 50 μM, singlicate
PCTAIRE1/CycY = PCTAIRE1/CycY (Homo sapiens, UniProt Q00536); assay: Kinase profiling; type: biochemical; settings: 10 semi-logarithmic dilutions from 50 μM, singlicate
PIM1 = PIM1 (Homo sapiens, UniProt P11309); assay: Kinase profiling; type: biochemical; settings: 10 semi-logarithmic dilutions from 50 μM, singlicate
[5] = tested on: MDA-MB-231 human breast cancer cells; assay: Cell cycle analysis (DNA content, flow cytometry); type: cell-based; settings: GI50 concentration; FIG. 1
Experimental: FIG. 1 depicts DNA content profiles of MDA-MB-231 human breast cancer cells treated with subject compounds or commercial CDK inhibitors, showing the percentage of cells at the different cell cycle phases after 48 hours of the treatments indicated. (n=6 technical replicates).
Cells were collected by trypsinization, washed with PBS and fixed with cold 70% ethanol. Cells were treated with 250 μg/ml RNase (Qiagen) for 30 minutes at 37° C. and stained with 10 μg/ml Propidium Iodide (Sigma). Cell cycle was analyzed by flow cytometry using a LSR Fortessa Analyzer. Cell cycle profiles were generated and analyzed with FlowJo software.
Cells were collected by tripsinization at several times after treatment with the indicated compounds and, then, fixed with cold 70% Ethanol. DNA content was determined by staining with propidium iodide (10 μg/ml, Sigma Aldrich). Data acquisition was performed with a LSR Fortessa analyzer (BD Biosciences) and analysed using FlowJo software.

[6] = tested on: MDA-MB-468 breast carcinoma cell line (pRB mutant); assay: Proliferation assay: determination of GI50; type: cell-based; settings: Homo sapiens, Table 4, n = 2, read-out: Growth inhibition GI50, Breast cancer pRB Mutant MDA-MB-468
Experimental: as §1, §2, §3

[7] = tested on: SW1783 glioblastoma cell line (pRB mutant); assay: Proliferation assay: determination of GI50; type: cell-based; settings: Homo sapiens, Table 4, n = 4, read-out: Growth inhibition GI50, Glioblastoma pRB Mutant SW1783
Experimental: as §1, §2, §3

[8] = Thermodynamic solubility (pH 7.4); type: physicochemical; settings: pH 7.4, aqueous buffer, thermodynamic from solid
[9] = Kinetic solubility (pH 7.4); type: physicochemical; settings: pH 7.4, aqueous buffer, kinetic from dmso stock
[10] = Metabolic stability in microsomes; type: in vitro ADME; settings: human, 60-90 min test
[11] = Metabolic stability in microsomes; type: in vitro ADME; settings: mouse, 60-90 min test
[12] = Metabolic stability in hepatocytes; type: in vitro ADME; settings: human, 60-90 min test
[13] = Metabolic stability in hepatocytes; type: in vitro ADME; settings: mouse, 60-90 min test
[14] = Permeability Caco-2 cells; type: in vitro ADME; settings: human, Caco-2
Caco-2 cells = assay: Permeability Caco-2 cells; type: in vitro ADME
Cdk2/4/6_KO MEFs = assay: Cell growth in Cdk-deficient MEFs; type: cell-based, mouse; settings: relative cell count day 6 versus day 3; FIG. 4
Experimental: (§4) Cdk-deficient MEFs were plated in 10-cm dish in triplicate (100,000/well) and treated with the selected compounds at the indicated concentration, based on GI50 previously determined in the MDA-MB-231 cell line. Cells were counted in an optical microscope 3 and 6 days after treatment to estimate the relative cell growth in each condition.
(§5) To further investigate the relative functional dependence of the subject compounds on CDK2 versus CDK4 or CDK6, the specific effects of PS004, PS006 and PS009 were tested on CDK-deficient mouse embryonic fibroblasts (MEFs) obtained from Cdk2 knock out, Cdk4; Cdk6-double knock out and Cdk2; Cdk4; Cdk6-triple knock out mouse models.

Cdk4/6_KO MEFs = assay: Cell growth in Cdk-deficient MEFs; type: cell-based, mouse; settings: relative cell count day 6 versus day 3; FIG. 4
Experimental: as §4, §5

[15] = not told
[16] = 10 semi-logarithmic dilutions from 50 μM, singlicate, read-out: IC50 CDC7/DBF4
[17] = 10 semi-logarithmic dilutions from 50 μM, singlicate, read-out: IC50 HIPK2
[18] = Homo sapiens, MDA-MB-231, Table 3, 48 h, n = 3 independent experiments, read-out: GI50 MDA-MB231
[19] = Homo sapiens, U-87 MG, Table 3, 48 h, n = 3 independent experiments, read-out: GI50 U87MG
[20] = 10 semi-logarithmic dilutions from 50 μM, singlicate, read-out: IC50 DYRK2

Row | Compound | IC50 (AKT1 aa1-480) [µM] | IC50 (CDC7/DBF4; [16]) [µM] | IC50 (CDK12wt/CycK) [µM] | IC50 (CDK19/CycC) [µM] | IC50 (CDK3/CycC) [µM] | IC50 (CDK3/CycE1) [µM] | IC50 (CDK8/CycC) [µM] | IC50 (ERK1) [µM] | IC50 (HIPK2; [17]) [µM] | GI50 ([1]; Homo sapiens, NCI-H460) [µM] | GI50 ([2]; Homo sapiens, MCF10) [µM] | GI50 [3, 18] [µM] | GI50 [4, 19] [µM] | IC50 (DYRK2; [20]) [µM] | further results
1 | CCN1CCN(Cc2ccc(Nc3ncc(F)c(-c4cc(F)c5nc(C)n(C(C)C)c5c4)n3)nc2)CC1 [Abemaciclib, reference compound] | > 50 | > 50 | 21 | > 50 | 49.7 | > 50 | > 50 | > 50 | 46.4 | 3.1 | 1.24 | 1.5 | 0.47 |  | 
2 | CC[C@H](CO)Nc1nc(NCc2ccccc2)c2ncn(C(C)C)c2n1 [Roscovitine, reference compound] |  |  |  |  |  |  |  |  |  |  |  |  |  |  | IC50 (CDC7/DBF4): 42.1 µM; IC50 (DYRK2): 38.1 µM; IC50 (HIPK2): > 50 µM
3 | O=C1NC(=NCc2cccs2)S/C1=C\c1ccc2ncccc2c1 [RO-3306, reference compound] |  |  |  |  |  |  |  |  |  |  |  |  |  |  | GI50 [1]: 25.6 µM; GI50 [2]: 2.8 µM; GI50 ([3]; Table 3, 48 h, n = 3 independent experiments, read-out: GI50 MDA-MB231): 3.2 µM; GI50 ([4]; Table 3, 48 h, n = 3 independent experiments, read-out: GI50 U87MG): > 50 µM
4 | CN(C)C(=O)c1cc2cnc(Nc3ccc(N4CCNCC4)cn3)nc2n1C1CCCC1 [Ribociclib, reference compound] | > 50 | 0.318 | 0.495 | 0.362 | 0.323 | 1.66 | 2.02 | > 50 | 0.0397 | 1.47 | 0.54 | 0.7 | 0.26 | 0.0139 | IC50 (CDK5/p25NCK): 2.19 µM; IC50 (CDK5/p35NCK): 0.641 µM; IC50 (CDK7/CycH/MAT1): 7.35 µM; IC50 (DYRK1A): 0.0145 µM; IC50 (PCTAIRE1/CycY): 0.589 µM; IC50 (PIM1): 0.0244 µM; cell cycle arrest by DNA content [5]: robust G0/G1-phase arrest
5 | CC(=O)c1c(C)c2cnc(Nc3ccc(N4CCNCC4)cn3)nc2n(C2CCCC2)c1=O [Palbociclib, reference compound] |  |  |  | 11.8 |  |  |  |  |  | 1.32 | 0.47 | 0.74 | 0.43 | 6.91 | GI50 ([3]; Homo sapiens, MDA-MB-231, Table 4, n = 4, read-out: Growth inhibition GI50, Breast cancer pRB Wild-Type MDA-MB-231): 1.7 µM; GI50 ([4]; Homo sapiens, U-87 MG, Table 4, n = 4, read-out: Growth inhibition GI50, Glioblastoma pRB Wild-Type U87MG): 5.7 µM; GI50 [6]: 9.5 µM; GI50 [7]: 19.9 µM; solubility thermodynamic [8]: 2.32 µM (≈ 1.04 µg/mL); solubility kinetic [9]: 19.9 µM (≈ 8.92 µg/mL); microsomal CLint ([10]; read-out: Metabolic stability, Human microsomes: Clearance): 23.6 µL/min/mg; half-life ([10]; read-out: Metabolic stability, Human microsomes: t1/2): 0.98 h; microsomal CLint ([11]; read-out: Metabolic stability, Mouse microsomes: Clearance): 18.3 µL/min/mg; half-life ([11]; read-out: Metabolic stability, Mouse microsomes: t1/2): 1.26 h; hepatocyte CLint ([12]; read-out: Metabolic stability, Human hepatocytes: Clearance): < 6.4 µL/min/1e6 cells; half-life ([12]; read-out: Metabolic stability, Human hepatocytes: t1/2): > 3.61 h; hepatocyte CLint ([13]; read-out: Metabolic stability, Mouse heptocytes: Clearance): 14.4 µL/min/1e6 cells; half-life ([13]; read-out: Metabolic stability, Mouse heptocytes: t1/2): 1.61 h; Papp [14]: 0.4 ×10⁻⁶ cm/s; Permeability Caco-2 cells: Permeability, grade in words (Caco-2 cells): (low); cell proliferation of Cdk2; Cdk4; Cdk6-triple knock out MEFs (Cdk2/4/6_KO MEFs): did not show activity; cell proliferation of Cdk4; Cdk6-double knock out MEFs (Cdk4/6_KO MEFs): did not show activity; Summary: permeability [15]: Low
